# Source: ChEMBL document CHEMBL4610059, “Isolation of triterpenoid saponins from Medicago sativa L. with neuroprotective activities” (2020)
# Experiments:
# Assay type in all cases: functional
# Conditions in all cases: read-out: Activity
# SH-SY5Y [1] = assay: Neuroprotective activity against H2O2-induced cell death in human SH-SY5Y cells assessed as cell viability at 50 uM preincubated for 1 hr followed by H2O2 addition and measured after 4 hrs by CCK8 assay (reference value: 61.14 +/- 1.05%)
# SH-SY5Y [2] = assay: Neuroprotective activity against H2O2-induced cell death in human SH-SY5Y cells assessed as cell viability at 100 uM preincubated for 1 hr followed by H2O2 addition and measured after 4 hrs by CCK8 assay (reference value: 61.14 +/- 1.05%)
# SH-SY5Y [3] = assay: Neuroprotective activity against H2O2-induced cell death in human SH-SY5Y cells assessed as cell viability at 25 uM preincubated for 1 hr followed by H2O2 addition and measured after 4 hrs by CCK8 assay (reference value: 61.14 +/- 1.05%)
SMILES,viability at 50 µM (SH-SY5Y [1]) [%],viability at 100 µM (SH-SY5Y [2]) [%],viability at 25 µM (SH-SY5Y [3]) [%]
COC(=O)[C@H]1O[C@@H](O[C@H]2[C@@H](O)C[C@@]3(C)[C@@H](CC[C@]4(C)[C@@H]3CC=C3[C@@H]5CC(C)(C)CC[C@]5(C(=O)O[C@@H]5O[C@H](CO)[C@@H](O)[C@H](O)[C@H]5O)CC[C@]34C)[C@]2(C)CO)[C@H](O)[C@@H](O)[C@@H]1O[C@@H]1OC[C@@H](O)[C@H](O)[C@H]1O,64.8,73,62.1
COC(=O)[C@H]1O[C@@H](O[C@H]2[C@@H](O)C[C@@]3(C)[C@@H](CC[C@]4(C)[C@@H]3CC=C3[C@@H]5CC(C)(C)CC[C@]5(C(=O)O[C@@H]5O[C@H](CO)[C@@H](O)[C@H](O)[C@H]5O)CC[C@]34C)[C@]2(C)CO)[C@H](O[C@@H]2O[C@H](CO)[C@H](O)[C@H](O)[C@H]2O)[C@@H](O)[C@@H]1O,61.2,67.1,60.7
Cc1c(C)c2c(c(C)c1O)CCC(C)(C(=O)O)O2 (stereo not given) [TROLOX],75.3,78.2,70.2
CC1(C)CC[C@]2(C(=O)O)CC[C@]3(C)C(=CC[C@@H]4[C@@]5(C)C[C@H](O)[C@H](O)[C@@](C)(C(=O)O)[C@@H]5CC[C@]43C)[C@@H]2C1,61.1,62.2,60.1
COC(=O)[C@H]1O[C@@H](O[C@H]2CC[C@@]3(C)[C@@H](CC[C@]4(C)[C@@H]3CC=C3[C@@H]5CC(C)(C)CC[C@]5(C(=O)O[C@@H]5O[C@H](CO)[C@@H](O)[C@H](O)[C@H]5O)CC[C@]34C)[C@]2(C)CO)[C@H](O[C@@H]2O[C@H](CO)[C@@H](O)[C@H](O)[C@H]2O[C@@H]2OC[C@H](O)[C@H](O)[C@H]2O)[C@@H](O)[C@@H]1O,62.9,63.1,61.9
